Source: PubChem BioAssay (NCI)
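How tested: cells in 96-well plates exposed to compound for 48 hours at five concentrations. TGI: total growth inhibition.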

How the values were obtained:
Assay in all cases: NCI tumour cell line growth inhibition, 48 h
[1] = tested on: K-562 leukemia
[2] = tested on: P388/ADR leukemia
[3] = tested on: SF-295 CNS
[4] = tested on: NCI-H522 lung
[5] = tested on: A498 renal
[6] = tested on: M19-MEL melanoma
[7] = tested on: HOP-62 NSCLC
[8] = tested on: U251 CNS
[9] = tested on: RPMI-8226 leukemia
[10] = tested on: P388 leukemia
[11] = tested on: RXF 393 renal
[12] = tested on: A549 NSCLC
[13] = tested on: KM12 colon
[14] = tested on: HCT-15 colon
[15] = tested on: EKVX NSCLC
[16] = tested on: XF 498 CNS
[17] = tested on: CCRF-CEM leukemia
[18] = tested on: SNB-75 CNS
[19] = tested on: HOP-92 NSCLC
[20] = tested on: DMS 114 small cell lung
[21] = tested on: OVCAR-3 ovarian
[22] = tested on: LOX IMVI melanoma
[23] = tested on: SW-620 colon
[24] = tested on: HCT-116 colon
[25] = tested on: HOP-18 NSCLC
[26] = tested on: DLD-1 colon
[27] = tested on: HL-60(TB) leukemia
[28] = tested on: SNB-78 CNS
[29] = tested on: UACC-62 melanoma
[30] = tested on: NCI-H460 lung
[31] = tested on: SK-MEL-2 melanoma
[32] = tested on: SK-MEL-5 melanoma
[33] = tested on: KM20L2 colon
[34] = tested on: SNB-19 CNS
[35] = tested on: CAKI-1 renal
[36] = tested on: SK-MEL-28 melanoma
[37] = tested on: NCI-H23 lung
[38] = tested on: IGROV1 ovarian
[39] = tested on: SF-268 CNS
[40] = tested on: OVCAR-8 ovarian
[41] = tested on: HCC-2998 colon
[42] = tested on: NCI-H226 lung
[43] = tested on: NCI/ADR-RES ovarian
[44] = tested on: OVCAR-5 ovarian
[45] = tested on: SN12K1 renal
[46] = tested on: HT29 colon
[47] = tested on: OVCAR-4 ovarian
[48] = tested on: DMS 273 small cell lung
[49] = tested on: SN12C renal
[50] = tested on: MOLT-4 leukemia
[51] = tested on: UO-31 renal
[52] = tested on: SF-539 CNS
[53] = tested on: MCF7 breast
[54] = tested on: UACC-257 melanoma
[55] = tested on: COLO 205 colon
[56] = tested on: MALME-3M melanoma
[57] = tested on: SK-OV-3 ovarian

Q: Which TGI [1] does the source give for `CC(C)NC(=O)OCc1c(CO)c2c(n1C)-c1ccccc1CC2` here?
A: 46 µM

Q: What about the TGI [2] of the same compound?
A: 53.9 µM

Q: And the TGI [3]?
A: > 100 µM

Q: And the TGI [4]?
A: 31.3 µM

Q: What about the TGI [5] of the same compound?
A: > 100 µM

Q: What about the TGI [6] of the same compound?
A: 59.3 µM

Q: What about the TGI [7] of the same compound?
A: > 93.3 µM

Q: What about the TGI [8] of the same compound?
A: > 61.4 µM

Q: And the TGI [9]?
A: 49.4 µM

Q: And the TGI [10]?
A: 32.7 µM

Q: And the TGI [11]?
A: 49.6 µM

Q: And the TGI [12]?
A: > 100 µM

Q: And the TGI [13]?
A: > 86.8 µM

Q: What about the TGI [14] of the same compound?
A: 54.6 µM

Q: And the TGI [15]?
A: > 100 µM

Q: What about the TGI [16] of the same compound?
A: 31.3 µM

Q: And the TGI [17]?
A: 45.2 µM

Q: And the TGI [18]?
A: > 100 µM

Q: And the TGI [19]?
A: 53.7 µM

Q: And the TGI [20]?
A: 40.7 µM

Q: And the TGI [21]?
A: 66.9 µM

Q: What about the TGI [22] of the same compound?
A: 56.8 µM

Q: And the TGI [23]?
A: 38.8 µM

Q: And the TGI [24]?
A: 34 µM

Q: What about the TGI [25] of the same compound?
A: 70.1 µM

Q: And the TGI [26]?
A: 46.4 µM

Q: What about the TGI [27] of the same compound?
A: > 58.3 µM

Q: What about the TGI [28] of the same compound?
A: 86.7 µM

Q: What about the TGI [29] of the same compound?
A: 36.6 µM

Q: What about the TGI [30] of the same compound?
A: 67.7 µM

Q: And the TGI [31]?
A: > 100 µM

Q: And the TGI [32]?
A: 71 µM

Q: What about the TGI [33] of the same compound?
A: > 84.5 µM

Q: And the TGI [34]?
A: > 100 µM

Q: And the TGI [35]?
A: 29.7 µM

Q: And the TGI [36]?
A: 64.4 µM

Q: What about the TGI [37] of the same compound?
A: > 65.1 µM

Q: What about the TGI [38] of the same compound?
A: > 77.6 µM

Q: What about the TGI [39] of the same compound?
A: > 100 µM

Q: What about the TGI [40] of the same compound?
A: 57.6 µM

Q: And the TGI [41]?
A: 57.4 µM

Q: And the TGI [42]?
A: > 64.5 µM

Q: And the TGI [43]?
A: 61.4 µM

Q: What about the TGI [44] of the same compound?
A: > 100 µM

Q: And the TGI [45]?
A: 35.1 µM

Q: And the TGI [46]?
A: 54.5 µM

Q: And the TGI [47]?
A: 73 µM

Q: What about the TGI [48] of the same compound?
A: 62.4 µM

Q: What about the TGI [49] of the same compound?
A: 59.8 µM

Q: What about the TGI [50] of the same compound?
A: 48.9 µM

Q: What about the TGI [51] of the same compound?
A: 71.4 µM

Q: What about the TGI [52] of the same compound?
A: 57.3 µM

Q: What about the TGI [53] of the same compound?
A: > 100 µM

Q: And the TGI [54]?
A: > 100 µM

Q: What about the TGI [55] of the same compound?
A: 44.7 µM

Q: What about the TGI [56] of the same compound?
A: > 31.6 µM

Q: And the TGI [57]?
A: > 100 µM
